Source: the NIST ThermoML archive (doi:10.1021/je034048e)
Numbers after ± are expanded uncertainties.

Assays:
[1] = for molar entropy: 101.33 kPa, Small (less than 1 g) adiabatic calorimetry
[2] = Molar enthalpy of transition or fusion; conditions: Crystal; Adiabatic calorimetry

CCCCCCCC/C=C/CCCCCCCC(=O)OCC(COC(=O)CCCCCCC/C=C/CCCCCCCC)OC(=O)CCCCCCC/C=C/CCCCCCCC [trielaidin]
[1]
Conditions | Triple point temperature [K] | molar entropy [J/K/mol]
20 K, Crystal | – | 26.56 ± 8.9
20 K, Metastable crystal | – | 61.98 ± 8.9
25 K, Crystal | – | 44.27 ± 8.9
25 K, Metastable crystal | – | 88.54 ± 8.9
30 K, Crystal | – | 70.83 ± 8.9
30 K, Metastable crystal | – | 115.11 ± 8.9
35 K, Crystal | – | 97.4 ± 8.9
35 K, Metastable crystal | – | 141.67 ± 8.9
40 K, Crystal | – | 132.81 ± 8.9
40 K, Metastable crystal | – | 177.09 ± 8.9
45 K, Crystal | – | 168.23 ± 8.9
45 K, Metastable crystal | – | 212.5 ± 8.9
50 K, Crystal | – | 194.8 ± 8.9
50 K, Metastable crystal | – | 239.07 ± 8.9
55 K, Crystal | – | 230.21 ± 8.9
55 K, Metastable crystal | – | 274.48 ± 8.9
60 K, Crystal | – | 265.63 ± 8.9
60 K, Metastable crystal | – | 309.9 ± 8.9
65 K, Crystal | – | 301.05 ± 8.9
65 K, Metastable crystal | – | 345.32 ± 8.9
70 K, Crystal | – | 327.61 ± 8.9
70 K, Metastable crystal | – | 380.74 ± 8.9
75 K, Crystal | – | 363.03 ± 8.9
75 K, Metastable crystal | – | 416.15 ± 18
80 K, Crystal | – | 398.44 ± 8.9
80 K, Metastable crystal | – | 451.57 ± 18
85 K, Crystal | – | 433.86 ± 18
85 K, Metastable crystal | – | 486.99 ± 18
90 K, Crystal | – | 460.42 ± 18
90 K, Metastable crystal | – | 513.55 ± 18
95 K, Crystal | – | 495.84 ± 18
95 K, Metastable crystal | – | 548.97 ± 18
100 K, Crystal | – | 531.26 ± 18
100 K, Metastable crystal | – | 584.39 ± 18
105 K, Crystal | – | 557.82 ± 18
105 K, Metastable crystal | – | 619.8 ± 18
110 K, Crystal | – | 593.24 ± 18
110 K, Metastable crystal | – | 646.37 ± 18
120 K, Crystal | – | 646.37 ± 18
120 K, Metastable crystal | – | 708.35 ± 18
130 K, Crystal | – | 708.35 ± 18
130 K, Metastable crystal | – | 770.33 ± 27
140 K, Crystal | – | 770.33 ± 27
140 K, Metastable crystal | – | 832.31 ± 27
150 K, Crystal | – | 823.45 ± 27
150 K, Metastable crystal | – | 894.29 ± 27
160 K, Crystal | – | 876.58 ± 27
160 K, Metastable crystal | – | 947.41 ± 27
170 K, Crystal | – | 929.7 ± 27
170 K, Metastable crystal | – | 1009.4 ± 35
180 K, Crystal | – | 982.83 ± 27
180 K, Metastable crystal | – | 1062.5 ± 35
190 K, Crystal | – | 1036 ± 35
190 K, Metastable crystal | – | 1124.5 ± 35
200 K, Crystal | – | 1089.1 ± 35
200 K, Metastable crystal | – | 1177.6 ± 35
210 K, Crystal | – | 1142.2 ± 35
210 K, Metastable crystal | – | 1239.6 ± 35
220 K, Crystal | – | 1186.5 ± 35
220 K, Metastable crystal | – | 1301.6 ± 35
230 K, Crystal | – | 1239.6 ± 35
230 K, Metastable crystal | – | 1363.6 ± 44
240 K, Crystal | – | 1292.7 ± 35
240 K, Metastable crystal | – | 1425.5 ± 44
250 K, Crystal | – | 1337 ± 44
250 K, Metastable crystal | – | 1487.5 ± 44
260 K, Crystal | – | 1390.1 ± 44
260 K, Metastable crystal | – | 1549.5 ± 44
270 K, Crystal | – | 1443.3 ± 44
270 K, Metastable crystal | – | 1611.5 ± 53
280 K, Crystal | – | 1496.4 ± 44
280 K, Metastable crystal | – | 1673.5 ± 53
288 K, Crystal | – | 1531.8 ± 44
288 K, Metastable crystal | – | 1726.6 ± 53
290 K, Crystal | – | 1549.5 ± 44
298.15 K, Crystal | – | 1593.8 ± 44
300 K, Crystal | – | 1602.6 ± 53
310 K, Crystal | – | 1655.8 ± 53
314.83 K, Crystal | – | 1673.5 ± 53
314.83 K, Liquid | – | 2204.7 ± 71
320 K, Liquid | – | 2213.6 ± 71
330 K, Liquid | – | 2275.6 ± 71
Crystal, Adiabatic calorimetry | 314.83 ± 1 | –

Conditions | Molar enthalpy of transition or fusion [kcal/mol]
[2] | 37.5 ± 0.765
